# Laboratory results as given in PubChem BioAssay (NCI).
#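 The compound was tested at five concentrations on cells cultured in 96-well plates, with a 48-hour exposure period. TGI marks complete inhibition of growth.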
# Test system: OVCAR-4 ovarian
# Experiment: NCI tumour cell line growth inhibition, 48 h
row,Compound,TGI
1,Cc1ccc(SSc2ccc(C)cc2C(=O)O)c(C(=O)O)c1,> 100 µM
2,O=C1NC2(CCCCCC2)C2CCCCCCC12O (stereo not given),> 100 µM

# Test system: HOP-92 NSCLC
# Experiment: NCI tumour cell line growth inhibition, 48 h
row,Compound,TGI
1,CCC12CCCN(Cc3ccccc3)C1c1c(n(C)c3ccccc13)C(C(=O)OC)C2 (stereo not given),> 239 µM
2,CC(C)CC(NC(=O)OC(C)(C)C)C(=O)Nc1ccc(Nc2nc(F)nc(-c3c4ccccc4c4n3CCS4)n2)cc1 (stereo not given),34.4 µM
3,O=C(O/C(=C(/N=Nc1ccccc1)c1ccccc1)c1ccccc1)c1ccccc1,> 100 µM
4,COc1cc([C@@H]2c3cc4c(cc3[C@@H](OC(=O)c3ccc(N)cc3)C3COC(=O)[C@@H]32)OCO4)cc(OC)c1O (stereo not given in full),20.7 µM
5,Cc1ccc(SSc2ccc(C)cc2C(=O)O)c(C(=O)O)c1,> 100 µM
6,CC(=O)NNc1nc(C)c(C(=O)/C=C/c2ccccc2Cl)s1,> 100 µM
7,O=C1NC2(CCCCCC2)C2CCCCCCC12O (stereo not given),> 100 µM

# Test system: HL-60(TB) leukemia
# Experiment: NCI tumour cell line growth inhibition, 48 h
row,Compound,TGI
1,CCC12CCCN(Cc3ccccc3)C1c1c(n(C)c3ccccc13)C(C(=O)OC)C2 (stereo not given),> 239 µM
2,COc1ccc2c(c1)[n+]([O-])c(-c1ccc(OC)c(OC)c1)c(N)[n+]2[O-],> 100 µM
3,CC(C)CC(NC(=O)OC(C)(C)C)C(=O)Nc1ccc(Nc2nc(F)nc(-c3c4ccccc4c4n3CCS4)n2)cc1 (stereo not given),46.5 µM
4,COc1cc([C@@H]2c3cc4c(cc3[C@@H](OC(=O)c3ccc(N)cc3)C3COC(=O)[C@@H]32)OCO4)cc(OC)c1O (stereo not given in full),22.2 µM
5,Cc1ccc(SSc2ccc(C)cc2C(=O)O)c(C(=O)O)c1,> 100 µM
6,CC(=O)NNc1nc(C)c(C(=O)/C=C/c2ccccc2Cl)s1,> 100 µM
7,O=C1NC2(CCCCCC2)C2CCCCCCC12O (stereo not given),> 100 µM

# Test system: SNB-78 CNS
# Experiment: NCI tumour cell line growth inhibition, 48 h
row,Compound,TGI
1,COc1ccc2c(c1)[n+]([O-])c(-c1ccc(OC)c(OC)c1)c(N)[n+]2[O-],> 100 µM
2,CC(C)CC(NC(=O)OC(C)(C)C)C(=O)Nc1ccc(Nc2nc(F)nc(-c3c4ccccc4c4n3CCS4)n2)cc1 (stereo not given),44.3 µM
3,O=C(O/C(=C(/N=Nc1ccccc1)c1ccccc1)c1ccccc1)c1ccccc1,> 100 µM
4,COc1cc([C@@H]2c3cc4c(cc3[C@@H](OC(=O)c3ccc(N)cc3)C3COC(=O)[C@@H]32)OCO4)cc(OC)c1O (stereo not given in full),> 95 µM
5,Cc1ccc(SSc2ccc(C)cc2C(=O)O)c(C(=O)O)c1,> 100 µM
6,CC(=O)NNc1nc(C)c(C(=O)/C=C/c2ccccc2Cl)s1,> 100 µM
7,O=C1NC2(CCCCCC2)C2CCCCCCC12O (stereo not given),> 100 µM

# Test system: KM12 colon
# Experiment: NCI tumour cell line growth inhibition, 48 h
row,Compound,TGI
1,CCC12CCCN(Cc3ccccc3)C1c1c(n(C)c3ccccc13)C(C(=O)OC)C2 (stereo not given),> 239 µM
2,COc1ccc2c(c1)[n+]([O-])c(-c1ccc(OC)c(OC)c1)c(N)[n+]2[O-],> 100 µM
3,CC(C)CC(NC(=O)OC(C)(C)C)C(=O)Nc1ccc(Nc2nc(F)nc(-c3c4ccccc4c4n3CCS4)n2)cc1 (stereo not given),51.1 µM
4,O=C(O/C(=C(/N=Nc1ccccc1)c1ccccc1)c1ccccc1)c1ccccc1,> 100 µM
5,COc1cc([C@@H]2c3cc4c(cc3[C@@H](OC(=O)c3ccc(N)cc3)C3COC(=O)[C@@H]32)OCO4)cc(OC)c1O (stereo not given in full),44.7 µM
6,Cc1ccc(SSc2ccc(C)cc2C(=O)O)c(C(=O)O)c1,> 100 µM
7,CC(=O)NNc1nc(C)c(C(=O)/C=C/c2ccccc2Cl)s1,> 100 µM
8,O=C1NC2(CCCCCC2)C2CCCCCCC12O (stereo not given),> 100 µM

# Test system: NCI-H522 lung
# Experiment: NCI tumour cell line growth inhibition, 48 h
row,Compound,TGI
1,CCC12CCCN(Cc3ccccc3)C1c1c(n(C)c3ccccc13)C(C(=O)OC)C2 (stereo not given),127 µM
2,COc1ccc2c(c1)[n+]([O-])c(-c1ccc(OC)c(OC)c1)c(N)[n+]2[O-],31.5 µM
3,CC(C)CC(NC(=O)OC(C)(C)C)C(=O)Nc1ccc(Nc2nc(F)nc(-c3c4ccccc4c4n3CCS4)n2)cc1 (stereo not given),29.2 µM
4,O=C(O/C(=C(/N=Nc1ccccc1)c1ccccc1)c1ccccc1)c1ccccc1,> 100 µM
5,COc1cc([C@@H]2c3cc4c(cc3[C@@H](OC(=O)c3ccc(N)cc3)C3COC(=O)[C@@H]32)OCO4)cc(OC)c1O (stereo not given in full),5.35 µM
6,Cc1ccc(SSc2ccc(C)cc2C(=O)O)c(C(=O)O)c1,> 100 µM
7,CC(=O)NNc1nc(C)c(C(=O)/C=C/c2ccccc2Cl)s1,> 100 µM
8,O=C1NC2(CCCCCC2)C2CCCCCCC12O (stereo not given),> 100 µM

# Test system: SNB-19 CNS
# Experiment: NCI tumour cell line growth inhibition, 48 h
row,Compound,TGI
1,CCC12CCCN(Cc3ccccc3)C1c1c(n(C)c3ccccc13)C(C(=O)OC)C2 (stereo not given),> 239 µM
2,COc1ccc2c(c1)[n+]([O-])c(-c1ccc(OC)c(OC)c1)c(N)[n+]2[O-],> 100 µM
3,CC(C)CC(NC(=O)OC(C)(C)C)C(=O)Nc1ccc(Nc2nc(F)nc(-c3c4ccccc4c4n3CCS4)n2)cc1 (stereo not given),36.9 µM
4,O=C(O/C(=C(/N=Nc1ccccc1)c1ccccc1)c1ccccc1)c1ccccc1,> 100 µM
5,COc1cc([C@@H]2c3cc4c(cc3[C@@H](OC(=O)c3ccc(N)cc3)C3COC(=O)[C@@H]32)OCO4)cc(OC)c1O (stereo not given in full),> 95 µM
6,Cc1ccc(SSc2ccc(C)cc2C(=O)O)c(C(=O)O)c1,> 100 µM
7,CC(=O)NNc1nc(C)c(C(=O)/C=C/c2ccccc2Cl)s1,> 100 µM
8,O=C1NC2(CCCCCC2)C2CCCCCCC12O (stereo not given),> 100 µM

# Test system: NCI-H23 lung
# Experiment: NCI tumour cell line growth inhibition, 48 h
row,Compound,TGI
1,CCC12CCCN(Cc3ccccc3)C1c1c(n(C)c3ccccc13)C(C(=O)OC)C2 (stereo not given),> 239 µM
2,COc1ccc2c(c1)[n+]([O-])c(-c1ccc(OC)c(OC)c1)c(N)[n+]2[O-],57 µM
3,CC(C)CC(NC(=O)OC(C)(C)C)C(=O)Nc1ccc(Nc2nc(F)nc(-c3c4ccccc4c4n3CCS4)n2)cc1 (stereo not given),33.1 µM
4,O=C(O/C(=C(/N=Nc1ccccc1)c1ccccc1)c1ccccc1)c1ccccc1,> 100 µM
5,COc1cc([C@@H]2c3cc4c(cc3[C@@H](OC(=O)c3ccc(N)cc3)C3COC(=O)[C@@H]32)OCO4)cc(OC)c1O (stereo not given in full),14.4 µM
6,Cc1ccc(SSc2ccc(C)cc2C(=O)O)c(C(=O)O)c1,> 100 µM
7,CC(=O)NNc1nc(C)c(C(=O)/C=C/c2ccccc2Cl)s1,> 100 µM
8,O=C1NC2(CCCCCC2)C2CCCCCCC12O (stereo not given),> 100 µM

# Test system: UACC-257 melanoma
# Experiment: NCI tumour cell line growth inhibition, 48 h
row,Compound,TGI
1,CCC12CCCN(Cc3ccccc3)C1c1c(n(C)c3ccccc13)C(C(=O)OC)C2 (stereo not given),191 µM
2,COc1ccc2c(c1)[n+]([O-])c(-c1ccc(OC)c(OC)c1)c(N)[n+]2[O-],> 100 µM
3,CC(C)CC(NC(=O)OC(C)(C)C)C(=O)Nc1ccc(Nc2nc(F)nc(-c3c4ccccc4c4n3CCS4)n2)cc1 (stereo not given),48.3 µM
4,O=C(O/C(=C(/N=Nc1ccccc1)c1ccccc1)c1ccccc1)c1ccccc1,> 100 µM
5,COc1cc([C@@H]2c3cc4c(cc3[C@@H](OC(=O)c3ccc(N)cc3)C3COC(=O)[C@@H]32)OCO4)cc(OC)c1O (stereo not given in full),> 95 µM
6,Cc1ccc(SSc2ccc(C)cc2C(=O)O)c(C(=O)O)c1,> 100 µM
7,CC(=O)NNc1nc(C)c(C(=O)/C=C/c2ccccc2Cl)s1,> 100 µM
8,O=C1NC2(CCCCCC2)C2CCCCCCC12O (stereo not given),> 100 µM

# Test system: DLD-1 colon
# Experiment: NCI tumour cell line growth inhibition, 48 h
row,Compound,TGI
1,CCC12CCCN(Cc3ccccc3)C1c1c(n(C)c3ccccc13)C(C(=O)OC)C2 (stereo not given),> 239 µM
2,COc1ccc2c(c1)[n+]([O-])c(-c1ccc(OC)c(OC)c1)c(N)[n+]2[O-],> 100 µM
3,CC(C)CC(NC(=O)OC(C)(C)C)C(=O)Nc1ccc(Nc2nc(F)nc(-c3c4ccccc4c4n3CCS4)n2)cc1 (stereo not given),36.8 µM
4,O=C(O/C(=C(/N=Nc1ccccc1)c1ccccc1)c1ccccc1)c1ccccc1,> 100 µM
5,COc1cc([C@@H]2c3cc4c(cc3[C@@H](OC(=O)c3ccc(N)cc3)C3COC(=O)[C@@H]32)OCO4)cc(OC)c1O (stereo not given in full),> 95 µM
6,Cc1ccc(SSc2ccc(C)cc2C(=O)O)c(C(=O)O)c1,> 100 µM
7,CC(=O)NNc1nc(C)c(C(=O)/C=C/c2ccccc2Cl)s1,> 100 µM
8,O=C1NC2(CCCCCC2)C2CCCCCCC12O (stereo not given),> 100 µM

# Test system: U251 CNS
# Experiment: NCI tumour cell line growth inhibition, 48 h
row,Compound,TGI
1,CCC12CCCN(Cc3ccccc3)C1c1c(n(C)c3ccccc13)C(C(=O)OC)C2 (stereo not given),> 239 µM
2,COc1ccc2c(c1)[n+]([O-])c(-c1ccc(OC)c(OC)c1)c(N)[n+]2[O-],> 100 µM
3,CC(C)CC(NC(=O)OC(C)(C)C)C(=O)Nc1ccc(Nc2nc(F)nc(-c3c4ccccc4c4n3CCS4)n2)cc1 (stereo not given),33.3 µM
4,O=C(O/C(=C(/N=Nc1ccccc1)c1ccccc1)c1ccccc1)c1ccccc1,> 100 µM
5,COc1cc([C@@H]2c3cc4c(cc3[C@@H](OC(=O)c3ccc(N)cc3)C3COC(=O)[C@@H]32)OCO4)cc(OC)c1O (stereo not given in full),28.7 µM
6,Cc1ccc(SSc2ccc(C)cc2C(=O)O)c(C(=O)O)c1,> 100 µM
7,CC(=O)NNc1nc(C)c(C(=O)/C=C/c2ccccc2Cl)s1,> 100 µM
8,O=C1NC2(CCCCCC2)C2CCCCCCC12O (stereo not given),> 100 µM

# Test system: XF 498 CNS
# Experiment: NCI tumour cell line growth inhibition, 48 h
row,Compound,TGI
1,CCC12CCCN(Cc3ccccc3)C1c1c(n(C)c3ccccc13)C(C(=O)OC)C2 (stereo not given),118 µM
2,COc1ccc2c(c1)[n+]([O-])c(-c1ccc(OC)c(OC)c1)c(N)[n+]2[O-],> 100 µM
3,CC(C)CC(NC(=O)OC(C)(C)C)C(=O)Nc1ccc(Nc2nc(F)nc(-c3c4ccccc4c4n3CCS4)n2)cc1 (stereo not given),42.3 µM
4,O=C(O/C(=C(/N=Nc1ccccc1)c1ccccc1)c1ccccc1)c1ccccc1,> 100 µM
5,O=C1NC2(CCCCCC2)C2CCCCCCC12O (stereo not given),> 100 µM

# Test system: SK-OV-3 ovarian
# Experiment: NCI tumour cell line growth inhibition, 48 h
row,Compound,TGI
1,CCC12CCCN(Cc3ccccc3)C1c1c(n(C)c3ccccc13)C(C(=O)OC)C2 (stereo not given),> 239 µM
2,COc1ccc2c(c1)[n+]([O-])c(-c1ccc(OC)c(OC)c1)c(N)[n+]2[O-],> 100 µM
3,CC(C)CC(NC(=O)OC(C)(C)C)C(=O)Nc1ccc(Nc2nc(F)nc(-c3c4ccccc4c4n3CCS4)n2)cc1 (stereo not given),32.9 µM
4,O=C(O/C(=C(/N=Nc1ccccc1)c1ccccc1)c1ccccc1)c1ccccc1,> 100 µM
5,COc1cc([C@@H]2c3cc4c(cc3[C@@H](OC(=O)c3ccc(N)cc3)C3COC(=O)[C@@H]32)OCO4)cc(OC)c1O (stereo not given in full),20.7 µM
6,Cc1ccc(SSc2ccc(C)cc2C(=O)O)c(C(=O)O)c1,> 100 µM
7,CC(=O)NNc1nc(C)c(C(=O)/C=C/c2ccccc2Cl)s1,> 100 µM
8,O=C1NC2(CCCCCC2)C2CCCCCCC12O (stereo not given),> 100 µM

# Test system: A549 NSCLC
# Experiment: NCI tumour cell line growth inhibition, 48 h
row,Compound,TGI
1,CCC12CCCN(Cc3ccccc3)C1c1c(n(C)c3ccccc13)C(C(=O)OC)C2 (stereo not given),> 239 µM
2,COc1ccc2c(c1)[n+]([O-])c(-c1ccc(OC)c(OC)c1)c(N)[n+]2[O-],> 100 µM
3,CC(C)CC(NC(=O)OC(C)(C)C)C(=O)Nc1ccc(Nc2nc(F)nc(-c3c4ccccc4c4n3CCS4)n2)cc1 (stereo not given),> 100 µM
4,O=C(O/C(=C(/N=Nc1ccccc1)c1ccccc1)c1ccccc1)c1ccccc1,> 100 µM
5,COc1cc([C@@H]2c3cc4c(cc3[C@@H](OC(=O)c3ccc(N)cc3)C3COC(=O)[C@@H]32)OCO4)cc(OC)c1O (stereo not given in full),28.1 µM
6,Cc1ccc(SSc2ccc(C)cc2C(=O)O)c(C(=O)O)c1,> 100 µM
7,CC(=O)NNc1nc(C)c(C(=O)/C=C/c2ccccc2Cl)s1,> 100 µM
8,O=C1NC2(CCCCCC2)C2CCCCCCC12O (stereo not given),> 100 µM

# Test system: RXF-631 renal
# Experiment: NCI tumour cell line growth inhibition, 48 h
row,Compound,TGI
1,CCC12CCCN(Cc3ccccc3)C1c1c(n(C)c3ccccc13)C(C(=O)OC)C2 (stereo not given),> 239 µM
2,O=C(O/C(=C(/N=Nc1ccccc1)c1ccccc1)c1ccccc1)c1ccccc1,> 100 µM
3,COc1cc([C@@H]2c3cc4c(cc3[C@@H](OC(=O)c3ccc(N)cc3)C3COC(=O)[C@@H]32)OCO4)cc(OC)c1O (stereo not given in full),42 µM
4,Cc1ccc(SSc2ccc(C)cc2C(=O)O)c(C(=O)O)c1,> 100 µM
5,CC(=O)NNc1nc(C)c(C(=O)/C=C/c2ccccc2Cl)s1,> 100 µM
